According to the supplement of paper PMC10307832:

Key:
Test in all cases: relative viability (nuclei count vs DMSO), 5 days (fraction); higher = more cells survive
[1] = compound: COC1=C(C=C(C=C1)C2=CC3=NC=CN3C(=N2)NC4=C(C=CC=N4)C(=O)N)OC [BAY61-3606] + COc1cccc2cc(-c3nc([C@H]4CC[C@H](C(=O)O)CC4)n4ncnc(N)c34)[nH]c12 [OSI-027] (partner 0.5 µM)
How it was run: (§1)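 Lung cancer cell lines were seeded in 1536-well plates and dosed by pin tool the next day, with either a single drug or a fixed anchor-drug dose combined with five library-drug doses (not always all listed) spaced in √10 steps. Five days later, one step fixed the cells and stained their nuclei (final 0.05% Triton X-100, 1% formaldehyde, 1 ug/ml Hoechst), and nuclei were counted on 4× images. Relative viability is the nuclei count in treated wells divided by the count in vehicle wells, and each value is the median of duplicate plates.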

[2] = compound: COC1=C(C=C(C=C1)C2=CC3=NC=CN3C(=N2)NC4=C(C=CC=N4)C(=O)N)OC [BAY61-3606] + Cc1cc(Nc2cc(N3CCN(C)CC3)nc(Sc3ccc(NC(=O)C4CC4)cc3)n2)n[nH]1 [Tozasertib] (partner 0.1 µM)
How it was run: as §1

[3] = compound: COC1=C(C=C(C=C1)C2=CC3=NC=CN3C(=N2)NC4=C(C=CC=N4)C(=O)N)OC [BAY61-3606] + C[C@]1(O)C[C@@H](c2nc(-c3ccc4ccc(-c5ccccc5)nc4c3)c3c(N)nccn32)C1 [Linsitinib] (partner 1 µM)
How it was run: as §1

[4] = compound: COC1=C(C=C(C=C1)C2=CC3=NC=CN3C(=N2)NC4=C(C=CC=N4)C(=O)N)OC [BAY61-3606] + CS(=O)(=O)N1CCN(Cc2cc3nc(-c4cccc5[nH]ncc45)nc(N4CCOCC4)c3s2)CC1 [Pictilisib] (partner 1 µM)
How it was run: as §1

NCI-H2347
relative viability ([1]; first compound 0.02 µM): 0.492 | relative viability ([1]; first compound 0.06325 µM): 0.365 | relative viability ([1]; first compound 0.2 µM): 0.457 | relative viability ([1]; first compound 0.6325 µM): 0.487 | relative viability ([1]; first compound 2 µM): 0.281 | relative viability ([2]; first compound 0.02 µM): 0.531 | relative viability ([2]; first compound 0.06325 µM): 0.384 | relative viability ([2]; first compound 0.2 µM): 0.394 | relative viability ([2]; first compound 0.6325 µM): 0.427 | relative viability ([2]; first compound 2 µM): 0.32 | relative viability ([3]; first compound 0.02 µM): 1.03 | relative viability ([3]; first compound 0.06325 µM): 0.97 | relative viability ([3]; first compound 0.2 µM): 0.978 | relative viability ([3]; first compound 0.6325 µM): 1.03 | relative viability ([3]; first compound 2 µM): 0.898 | relative viability ([4]; first compound 0.02 µM): 0.715 | relative viability ([4]; first compound 0.06325 µM): 0.495 | relative viability ([4]; first compound 0.2 µM): 0.801 | relative viability ([4]; first compound 0.6325 µM): 0.746 | relative viability ([4]; first compound 2 µM): 0.892

NCI-H2405
relative viability ([1]; first compound 0.02 µM): 0.676 | relative viability ([1]; first compound 0.06325 µM): 0.63 | relative viability ([1]; first compound 0.2 µM): 0.64 | relative viability ([1]; first compound 0.6325 µM): 0.756 | relative viability ([1]; first compound 2 µM): 0.65 | relative viability ([2]; first compound 0.02 µM): 0.698 | relative viability ([2]; first compound 0.06325 µM): 0.426 | relative viability ([2]; first compound 0.2 µM): 0.479 | relative viability ([2]; first compound 0.6325 µM): 0.491 | relative viability ([2]; first compound 2 µM): 0.287 | relative viability ([3]; first compound 0.02 µM): 1.05 | relative viability ([3]; first compound 0.06325 µM): 0.835 | relative viability ([3]; first compound 0.2 µM): 0.94 | relative viability ([3]; first compound 0.6325 µM): 1.12 | relative viability ([3]; first compound 2 µM): 0.639 | relative viability ([4]; first compound 0.02 µM): 0.623 | relative viability ([4]; first compound 0.06325 µM): 0.308 | relative viability ([4]; first compound 0.2 µM): 0.379 | relative viability ([4]; first compound 0.6325 µM): 0.371 | relative viability ([4]; first compound 2 µM): 0.43

NCI-H3122
relative viability ([1]; first compound 0.02 µM): 1.02 | relative viability ([1]; first compound 0.06325 µM): 0.922 | relative viability ([1]; first compound 0.2 µM): 0.891 | relative viability ([1]; first compound 0.6325 µM): 1.27 | relative viability ([1]; first compound 2 µM): 0.847 | relative viability ([2]; first compound 0.02 µM): 0.456 | relative viability ([2]; first compound 0.06325 µM): 0.262 | relative viability ([2]; first compound 0.2 µM): 0.377 | relative viability ([2]; first compound 0.6325 µM): 0.438 | relative viability ([2]; first compound 2 µM): 0.305 | relative viability ([3]; first compound 0.02 µM): 1.08 | relative viability ([3]; first compound 0.06325 µM): 1.08 | relative viability ([3]; first compound 0.2 µM): 0.974 | relative viability ([3]; first compound 0.6325 µM): 0.924 | relative viability ([3]; first compound 2 µM): 0.918 | relative viability ([4]; first compound 0.02 µM): 0.621 | relative viability ([4]; first compound 0.06325 µM): 0.632 | relative viability ([4]; first compound 0.2 µM): 0.568 | relative viability ([4]; first compound 0.6325 µM): 0.59 | relative viability ([4]; first compound 2 µM): 0.619

PC-3 [JPC-3]
relative viability ([1]; first compound 0.06325 µM): 0.756 | relative viability ([1]; first compound 0.2 µM): 0.711 | relative viability ([1]; first compound 0.6325 µM): 0.787 | relative viability ([1]; first compound 2 µM): 0.704 | relative viability ([2]; first compound 0.06325 µM): 0.891 | relative viability ([2]; first compound 0.2 µM): 0.889 | relative viability ([2]; first compound 0.6325 µM): 0.837 | relative viability ([2]; first compound 2 µM): 0.613 | relative viability ([3]; first compound 0.02 µM): 0.895 | relative viability ([3]; first compound 0.06325 µM): 0.906 | relative viability ([3]; first compound 0.2 µM): 0.947 | relative viability ([3]; first compound 0.6325 µM): 1.01 | relative viability ([3]; first compound 2 µM): 0.93 | relative viability ([4]; first compound 0.02 µM): 0.784 | relative viability ([4]; first compound 0.06325 µM): 0.695 | relative viability ([4]; first compound 0.2 µM): 0.695 | relative viability ([4]; first compound 0.6325 µM): 0.678 | relative viability ([4]; first compound 2 µM): 0.561

PC-14
relative viability ([1]; first compound 0.02 µM): 0.786 | relative viability ([1]; first compound 0.06325 µM): 0.787 | relative viability ([1]; first compound 0.2 µM): 0.746 | relative viability ([1]; first compound 0.6325 µM): 1.24 | relative viability ([1]; first compound 2 µM): 0.522 | relative viability ([2]; first compound 0.02 µM): 0.597 | relative viability ([2]; first compound 0.06325 µM): 0.637 | relative viability ([2]; first compound 0.2 µM): 0.5 | relative viability ([2]; first compound 0.6325 µM): 0.568 | relative viability ([2]; first compound 2 µM): 0.174 | relative viability ([3]; first compound 0.02 µM): 1.05 | relative viability ([3]; first compound 0.06325 µM): 1.04 | relative viability ([3]; first compound 0.2 µM): 0.916 | relative viability ([3]; first compound 0.6325 µM): 0.968 | relative viability ([3]; first compound 2 µM): 0.826 | relative viability ([4]; first compound 0.02 µM): 0.647 | relative viability ([4]; first compound 0.06325 µM): 0.605 | relative viability ([4]; first compound 0.2 µM): 0.654 | relative viability ([4]; first compound 0.6325 µM): 0.994 | relative viability ([4]; first compound 2 µM): 0.589

RERF-LC-KJ
relative viability ([1]; first compound 0.02 µM): 0.605 | relative viability ([1]; first compound 0.06325 µM): 0.533 | relative viability ([1]; first compound 0.2 µM): 0.573 | relative viability ([1]; first compound 0.6325 µM): 0.621 | relative viability ([1]; first compound 2 µM): 0.379 | relative viability ([2]; first compound 0.02 µM): 0.532 | relative viability ([2]; first compound 0.06325 µM): 0.435 | relative viability ([2]; first compound 0.2 µM): 0.399 | relative viability ([2]; first compound 0.6325 µM): 0.368 | relative viability ([2]; first compound 2 µM): 0.279 | relative viability ([3]; first compound 0.02 µM): 0.844 | relative viability ([3]; first compound 0.06325 µM): 0.918 | relative viability ([3]; first compound 0.2 µM): 0.852 | relative viability ([3]; first compound 0.6325 µM): 0.886 | relative viability ([3]; first compound 2 µM): 0.807 | relative viability ([4]; first compound 0.02 µM): 0.532 | relative viability ([4]; first compound 0.06325 µM): 0.411 | relative viability ([4]; first compound 0.2 µM): 0.59 | relative viability ([4]; first compound 0.6325 µM): 0.577 | relative viability ([4]; first compound 2 µM): 0.441

SK-LU-1
relative viability ([1]; first compound 0.02 µM): 0.357 | relative viability ([1]; first compound 0.06325 µM): 0.366 | relative viability ([1]; first compound 0.2 µM): 0.317 | relative viability ([1]; first compound 0.6325 µM): 0.285 | relative viability ([1]; first compound 2 µM): 0.227 | relative viability ([2]; first compound 0.02 µM): 0.315 | relative viability ([2]; first compound 0.06325 µM): 0.282 | relative viability ([2]; first compound 0.2 µM): 0.264 | relative viability ([2]; first compound 0.6325 µM): 0.231 | relative viability ([2]; first compound 2 µM): 0.2 | relative viability ([3]; first compound 0.02 µM): 1.13 | relative viability ([3]; first compound 0.06325 µM): 1.21 | relative viability ([3]; first compound 0.2 µM): 0.987 | relative viability ([3]; first compound 0.6325 µM): 0.984 | relative viability ([3]; first compound 2 µM): 0.482 | relative viability ([4]; first compound 0.02 µM): 0.628 | relative viability ([4]; first compound 0.06325 µM): 0.498 | relative viability ([4]; first compound 0.2 µM): 0.662 | relative viability ([4]; first compound 0.6325 µM): 0.515 | relative viability ([4]; first compound 2 µM): 0.428

SK-MES-1
relative viability ([1]; first compound 0.02 µM): 0.604 | relative viability ([1]; first compound 0.06325 µM): 0.674 | relative viability ([1]; first compound 0.2 µM): 0.56 | relative viability ([1]; first compound 0.6325 µM): 0.706 | relative viability ([1]; first compound 2 µM): 0.405 | relative viability ([2]; first compound 0.02 µM): 0.889 | relative viability ([2]; first compound 0.06325 µM): 0.819 | relative viability ([2]; first compound 0.2 µM): 0.623 | relative viability ([2]; first compound 0.6325 µM): 0.61 | relative viability ([2]; first compound 2 µM): 0.135 | relative viability ([3]; first compound 0.02 µM): 1 | relative viability ([3]; first compound 0.06325 µM): 1.13 | relative viability ([3]; first compound 0.2 µM): 1.09 | relative viability ([3]; first compound 0.6325 µM): 1.09 | relative viability ([3]; first compound 2 µM): 0.989 | relative viability ([4]; first compound 0.02 µM): 0.393 | relative viability ([4]; first compound 0.06325 µM): 0.337 | relative viability ([4]; first compound 0.2 µM): 0.333 | relative viability ([4]; first compound 0.6325 µM): 0.354 | relative viability ([4]; first compound 2 µM): 0.315

SW 1573
relative viability ([1]; first compound 0.02 µM): 0.613 | relative viability ([1]; first compound 0.06325 µM): 0.552 | relative viability ([1]; first compound 0.2 µM): 0.51 | relative viability ([1]; first compound 0.6325 µM): 0.63 | relative viability ([1]; first compound 2 µM): 0.325 | relative viability ([2]; first compound 0.02 µM): 0.168 | relative viability ([2]; first compound 0.06325 µM): 0.174 | relative viability ([2]; first compound 0.2 µM): 0.154 | relative viability ([2]; first compound 0.6325 µM): 0.197 | relative viability ([2]; first compound 2 µM): 0.146 | relative viability ([3]; first compound 0.02 µM): 0.821 | relative viability ([3]; first compound 0.06325 µM): 0.762 | relative viability ([3]; first compound 0.2 µM): 0.803 | relative viability ([3]; first compound 0.6325 µM): 0.674 | relative viability ([3]; first compound 2 µM): 0.625 | relative viability ([4]; first compound 0.02 µM): 0.476 | relative viability ([4]; first compound 0.06325 µM): 0.44 | relative viability ([4]; first compound 0.2 µM): 0.464 | relative viability ([4]; first compound 0.6325 µM): 0.514 | relative viability ([4]; first compound 2 µM): 0.367
